The values that follow come from US20120058989A1, “ANTIBACTERIAL FLUOROQUINOLONE ANALOGS” (Achaogen, Inc., priority 2008, published 2012).

Holding throughout (assay): MIC, CLSI broth microdilution
Assay type in all cases: cell-based

In assay [1] the test system is S. aureus ASAU1031 (Fluoroquinolone-resistant). As to conditions: Table 2. As to the method:
(§1) Minimum inhibitory concentrations (MIC) were determined by reference Clinical and Laboratory Standards Institute (CLSI) broth microdilution methods per M7-A7 [2006]. Quality control ranges utilizing E. coli ATCC 25922, P. aeruginosa ATCC 27853 and S. aureus ATCC 29213, and interpretive criteria for comparator agents were as published in CLSI M100-S17 [2007]. Briefly, serial two-fold dilutions of the test compounds were prepared at 2× concentration in Mueller Hinton Broth. The compound dilutions were mixed in 96-well assay plates in a 1:1 ratio with bacterial inoculum. The inoculum was prepared by suspension of a colony from an agar plate that was prepared the previous day. Bacteria were suspended in sterile saline and added to each assay plate to obtain a final concentration of 5×10^5 CFU/mL. The plates were incubated at 35° C. for 20 hours in ambient air.

For assay [2], the system named is A. baumannii AABA1009 (Fluoroquinolone-resistant). As to conditions: Table 2. As to the method:
as §1

The test system of assay [3] is E. coli AECO001 (Fluoroquinolone susceptible, ATCC25922). As to conditions: Table 2, 35° C., 20 hours; for MIC: Escherichia coli, read-out: MIC AECO 001. As to the method: as §1
In assay [4] the test system is S. aureus ASAU001 (Fluoroquinolone-susceptible, ATCC29213). The settings on record: for MIC ASAU 001: Table 2; for MIC: Staphylococcus aureus, Table 2, read-out: MIC ASAU 001. As to the method:
as §1

Assay [5] relates to S. pneumoniae ASPN1027 (Fluoroquinolone-resistant). The settings on record: Table 2. The protocol:
as §1

Assay [6] concerns P. aeruginosa APAE001 (Fluoroquinolone-susceptible, ATCC27853). The settings on record: for MIC APAE 001: Table 2; for MIC: Pseudomonas aeruginosa, Table 2, read-out: MIC APAE 001. As to the method:
as §1

Assay [7] relates to P. aeruginosa APAE054 (Fluoroquinolone-resistant). As to conditions: Table 2. The protocol: as §1
The test system of assay [8] is A. baumannii AABA1065 (Fluoroquinolone-susceptible). The settings on record: for MIC AABA 1065: Table 2; for MIC: Acinetobacter baumannii, Table 2, read-out: MIC AABA 1065. As to the method: as §1
For assay [9], the system named is S. pneumoniae ASPN001 (Fluoroquinolone-susceptible, ATCC49619). The settings on record: Table 2. As to the method: as §1
Assay [10] relates to E. coli AECO066 (Fluoroquinolone-resistant). The settings on record: for MIC AECO 066: Table 2; for MIC: Escherichia coli, Table 2, read-out: MIC AECO 066. As to the method: as §1

SMILES strings stand for the structures. Values after ≈ are worked out from the molar mass of the structure shown.

`NC[C@H]1C[C@@H]2CC=Cc3c(c(F)cc4c(=O)c(C(=O)O)cn(C5CC5)c34)N2C1.O=C(O)C(F)(F)F` [20/14, (7aS,9R)-9-(Aminomethyl)-4-cyclopropyl-12-fluoro-1-oxo-4,7,7a,8,9,10-hexahydro-1H-pyrrolo[1′,2′:1,7]azepino[2,3-h]quinoline-2-carboxylic acid trifluoroacetate]: in assay [1], the “MIC ASAU 1031” value was “C (MIC's of greater than 8.0 μg/mL = C)”. Besides, the “MIC AABA 1009” value in assay [2] is “C (MIC's of greater than 8.0 μg/mL = C)”. In [3], the “MIC AECO 001” value was “A (MIC's of 1.0 μg/mL or less = A)”. For the same compound, in [4], the “MIC ASAU 001” value is “A (MIC's of 1.0 μg/mL or less = A)”. Moreover, the “MIC ASPN 1027” value in assay [5] was “C (MIC's of greater than 8.0 μg/mL = C)”. Also, the “MIC APAE 001” value in assay [6] was “B (MIC's of greater than 1.0 μg/mL to 8.0 μg/mL = B)”. In addition, the “MIC APAE 054” value in [7] is recorded as “C (MIC's of greater than 8.0 μg/mL = C)”. Also, the “MIC AABA 1065” value in [8] is “A (MIC's of 1.0 μg/mL or less = A)”. Moreover, the “MIC ASPN 001” value in assay [9] was “A (MIC's of 1.0 μg/mL or less = A)”. The “MIC AECO 066” value in assay [10] is recorded as “C (MIC's of greater than 8.0 μg/mL = C)”.

In the case of `NCC1CCN2c3c(F)cc4c(=O)c(C(=O)O)cn(C5CC5)c4c3C=CCC12.O=C(O)C(F)(F)F` (racemic) [24/rac-16, (7aS*,8S*)-8-(Aminomethyl)-4-cyclopropyl-12-fluoro-1-oxo-4,7,7a,8,9,10-hexahydro-1H-pyrrolo[1′,2′:1,7]aze-pino-[2,3-h]quinoline-2-carboxylic acid trifluoroacetate], the “MIC ASAU 1031” value in assay [1] was “B (MIC's of greater than 1.0 μg/mL to 8.0 μg/mL = B)”. For the same compound, in [2], the “MIC AABA 1009” value was “C (MIC's of greater than 8.0 μg/mL = C)”. Further, the “MIC AECO 001” value in assay [3] was “A (MIC's of 1.0 μg/mL or less = A)”. Also, the “MIC ASAU 001” value in assay [4] was “A (MIC's of 1.0 μg/mL or less = A)”. Moreover, the “MIC ASPN 1027” value in assay [5] is “B (MIC's of greater than 1.0 μg/mL to 8.0 μg/mL = B)”. For the same compound, the “MIC APAE 001” value in assay [6] is “B (MIC's of greater than 1.0 μg/mL to 8.0 μg/mL = B)”. Moreover, the “MIC APAE 054” value in assay [7] is listed as “C (MIC's of greater than 8.0 μg/mL = C)”. Besides, the “MIC AABA 1065” value in assay [8] is given as “A (MIC's of 1.0 μg/mL or less = A)”. Moreover, the “MIC ASPN 001” value in [9] is given as “A (MIC's of 1.0 μg/mL or less = A)”. Besides, the “MIC AECO 066” value in assay [10] was “C (MIC's of greater than 8.0 μg/mL = C)”.

As to `CCNC1CC2CCCc3c(c(F)cc4c(=O)c(C(=O)O)cn(C5CC5)c34)N2C1.O=C(O)C(F)(F)F` (mixture of isomers) [7B/20, (9S)-4-cyclopropyl-9-(ethylamino)-12-fluoro-1-oxo-4,5,6,7,7a,8,9,10-octahydro-1H-pyrrolo[1′,2′:1,7]-azepino[2,3-h]quinoline-2-carboxylic acid trifluoroacetate], in [1], the “MIC ASAU 1031” value was “B (MIC's of greater than 1.0 μg/mL to 8.0 μg/mL = B)”. The “MIC AABA 1009” value in assay [2] is on record as “C (MIC's of greater than 8.0 μg/mL = C)”. Also, the “MIC AECO 001” value in assay [3] is on record as “A (MIC's of 1.0 μg/mL or less = A)”. Besides, the “MIC ASAU 001” value in assay [4] is reported as “A (MIC's of 1.0 μg/mL or less = A)”. In assay [5], the “MIC ASPN 1027” value is listed as “C (MIC's of greater than 8.0 μg/mL = C)”. The “MIC APAE 001” value in [6] is listed as “B (MIC's of greater than 1.0 μg/mL to 8.0 μg/mL = B)”. In addition, the “MIC APAE 054” value in assay [7] was “C (MIC's of greater than 8.0 μg/mL = C)”. In assay [8], the “MIC AABA 1065” value is on record as “A (MIC's of 1.0 μg/mL or less = A)”. Also, in [9], the “MIC ASPN 001” value is listed as “A (MIC's of 1.0 μg/mL or less = A)”. The “MIC AECO 066” value in [10] is given as “C (MIC's of greater than 8.0 μg/mL = C)”.

Regarding `O=C1CC2CCCN2c2c(F)cc3c(=O)c(C(=O)O)cn(C4CC4)c3c2N1` (stereo not shown) [32/3], the MIC in assay [3], in assay [4], in assay [6], in [8] and in assay [10] was more than 8 µg/mL throughout.

Take `O=C(O)c1cn(C2CC2)c2c3c(c(F)cc2c1=O)N1CCCC1CO3` (stereo not shown) [Comparative Compound 1, reference compound]: the minimum inhibitory concentration (MIC) is more than 8 µg/mL in [3]; 1 to 8 µg/mL (≈ 2.9 to 23.2 µM) in [4]; more than 8 µg/mL in assay [6]; more than 8 µg/mL in [8]; more than 8 µg/mL in assay [10].
